Test results taken from patent US9439430B2, “Method of controlling resistant harmful plants” (priority 2012, dated 2016).

Test system: AMATA
Test: Greenhouse test, pre-emergence (PE) soil application
Type: in vivo, Amaranthus rudis
Details: group (B) compound alone, 20 g of AS/ha
From the text: The 1:1 mixture of the two soil types was used specifically for cultivating small-seeded dicotyledonous weed since the standard field soil on its own tends to silt up, which may have an adverse effect on the emergence of small-seeded weeds. The resistances mentioned in the tables were confirmed beforehand in standard monitoring experiments. Nevertheless, the origins examined may have additional, hitherto unconfirmed resistances to various mechanisms of action.
The pots were then cultivated in a greenhouse (12-16 h light, temperature day 20-22° C., night 15-18° C.) until the time of application. The pots were treated at various BBCH stages of the seeds/plants on a laboratory track sprayer with spray liquors comprising the compositions according to the invention, mixtures of the prior art or the individual components. Application of the active compounds or active compound combinations and wetting agents formulated as WG, WP, EC or otherwise was carried out at the appropriate growth stages of the plants. The amount of water used for spray application was 100-600 l/ha. After the treatment, the plants were returned to the greenhouses and fertilized and watered as required. The pots were cultivated in a greenhouse (12-16 h light, temperature day 20-22° C., night 15-18° C.).
3 weeks after the application, the foliar effect was evaluated on a scale of 0-100%:
0%=no noticeable effect compared to untreated plants
100%=full effect compared to untreated plants
The following abbreviations were used: • BBCH the BBCH code provides information about the morphological development stage of a plant. Officially, the abbreviation denotes the Biologische Bundesanstalt, Bundessortenamt and CHemische Industrie [Federal Biological Institute for Agriculture and Forestry, Federal Office for Crop Plant Varieties, Chemical Industry]. The range of BBCH 00-10 denotes the germination stages of the seeds until surface penetration. […]

SMILES	effect on AMATA resistant - group B (TSR), C1 (TSR)
COc1cc(OC)nc(NC(=O)NS(=O)(=O)c2ncccc2C(F)(F)F)n1 [(B1), flazasulfuron]	60
CCS(=O)(=O)c1cccnc1S(=O)(=O)NC(=O)Nc1nc(OC)cc(OC)n1 [(B3), rimsulfuron]	60
COc1cc(OC)nc(NC(=O)NS(=O)(=O)c2cc(NC=O)ccc2C(=O)N(C)C)n1 [(B2), foramsulfuron]	40
